≈ marks a conversion by molar mass, not a printed value. Where “and” joins values, the source holds several entries; their conditions need not be identical. Identical values can stand only once.
How the values were obtained:
ICR male mice = test: Acute toxicity in mice; type: in vivo; details: once into the tail vein, observed 5 days
Method: The compound of Example I-26 was used as a representative compound. The test compound was diluted with distilled water for injection so that the drug liquid concentration became 60.75 mg/ml, and administered once, in an administration rate of 10 to 20 µl/min, into the tail vein of each of 4-week-old ICR male mice, according to "Commentary on GLP Standard and Toxicity Test Method Guidline" (supervised by the Examination Section, Drug Secretariat, the Ministry of Welfare; Yakuji-Nippo Co.). The state of death and the general symptoms of mobility were observed over a period of 5 days after the administration.

SD rats = test: Toxicity test on the central nervous system in rats; details: 200 µg/rat into the lateral ventricle, n=5, observed for 30 minutes
Source text: A chronic guide cannula was inserted into the right lateral ventricle of each of 7-week-old male SD rats (n=5), and fixed by a dental range.

P.mirabilis MB4955 = test: In vitro antibacterial activity, agar plate dilution method (MIC); type: cell-based; details: Proteus mirabilis, MH agar, inoculum 10^6CFU/ml, 37 °C, 16 hours, read-out: Minimum inhibitory Concentration (MIC)
Method: (§1) One platinum loopful (inoculum : 10^6CFU/ml) of each test microorganism cultured overnight in Mueller Hinton broth was inoculated into Mueller Hinton agars (MH agar). These media contained an antimicrobial agent in various concentrations. Each test microorganism was cultured at 37 °C for 16 hours, and then the minimum inhibitory concentration (MIC: µg/ml) was assayed. Accordingly, the minimum inhibitory concentrations of compounds of the invention were assayed.

S.aureus JS1 = test: as above; type: cell-based; details: Staphylococcus aureus, MH agar, inoculum 10^6CFU/ml, 37 °C, 16 hours, read-out: Minimum inhibitory Concentration (MIC)
Method: as §1

S.aureus MB4970 = test: as above; type: cell-based; details: Staphylococcus aureus, MH agar, inoculum 10^6CFU/ml, 37 °C, 16 hours, read-out: Minimum inhibitory Concentration (MIC)
Method: as §1

S.aureus BB5939 = test: as above; type: cell-based; details: Staphylococcus aureus; S.aureus BB5939 (β-lactamase-producing bacterium); MH agar, inoculum 10^6CFU/ml, 37 °C, 16 hours; read-out: Minimum inhibitory Concentration (MIC)
Method: as §1

S.aureus CSa929 = test: Agar plate dilution method (MIC), media supplemented with 2 % sodium chloride; type: cell-based; details: Staphylococcus aureus, 35 °C, 48 hours, read-out: Minimum inhibitory Concentration (MIC)
Method: (§2) One platinum loopful (inoculum : 10^6CFU/ml) of each test microorganism cultured overnight in Mueller Hinton broth was inoculated into Mueller Hinton agars (MH agar). These media contained an antimicrobial agent in various concentrations. […] Accordingly, the minimum inhibitory concentrations of compounds of the invention were assayed. Table 1 The minimum inhibitory concentrations (MIC: µg/ml) of compounds of the invention were assayed according to the above agar plate dilution method using the media supplemented with 2 % sodium chloride as test media and using the culture conditions of 35 °C and 48 hours.

S.aureus MB5393 = test: as above; type: cell-based; details: Staphylococcus aureus, 35 °C, 48 hours, read-out: Minimum inhibitory Concentration (MIC)
Method: as §2

white rabbits = test: Renal toxicity test using white rabbits; type: in vivo; details: for Blood urea nitrogen before administration / Creatinine before administration: just before the administration (baseline)
Method: The compound of Example I-72 was made into a liquid with sterilized distilled water for injection so that the drug liquid concentration became 10 %, and intraperitoneally administered once in a dose of 225 mg/kg into 18-week-old male white rabbits from Japan (n=3 per each group). As for a control group, 0.9 % physiological saline was intraperitoneally administered once in the same manner as above. Serum urea nitrogen and creatinine were assayed just before the administration and about 48 hours after the administration. After the blood drawing, each rabbit was killed with leaving them alone under anesthetization and roughly observed, and then autopsy was carried out only on the kidney fixed with neutral 10 % formalin buffer. Each kidney preparation was prepared by a usual method, stained with hematoxylin and eosin and observed by a microscope.

[1] = Mean, n=3, about 48 hours after 225 mg/kg intraperitoneally once
[2] = individual rabbit, about 48 hours after 225 mg/kg intraperitoneally once
[3] = individual rabbit, 225 mg/kg intraperitoneally once, 225 mg/kg

MIC (P.mirabilis MB4955)	MIC (S.aureus JS1)	MIC (S.aureus MB4970)	MIC (S.aureus BB5939)	SMILES	other results
0.1 µg/mL (≈ 0.226 µM)	0.1 µg/mL (≈ 0.226 µM)	≤ 0.006 µg/mL	0.39 µg/mL (≈ 0.881 µM)	CNCC(=O)N1CCN(C(=S)SC2=C(C(=O)O)N3C(=O)[C@H]([C@@H](C)O)[C@H]3[C@H]2C)CC1 [Example I-41]	–
–	–	–	–	C[C@@H](O)[C@H]1C(=O)N2C(C(=O)O)=C(SC(=S)N3CCc4ccccc43)[C@H](C)[C@H]12 [Example I-51]	MIC (S.aureus CSa929): 0.39 µg/mL (≈ 0.964 µM); MIC (S.aureus MB5393): 0.39 µg/mL (≈ 0.964 µM)
0.1 µg/mL (≈ 0.303 µM)	0.2 µg/mL (≈ 0.605 µM)	25 µg/mL (≈ 75.7 µM)	1.56 µg/mL (≈ 4.72 µM)	C[C@@H](O)[C@H]1C(=O)N2C(C(=O)O)=C(SC(=S)N(C)C)[C@H](C)[C@H]12 [Example I-63]	–
0.05 µg/mL (≈ 0.139 µM)	0.1 µg/mL (≈ 0.277 µM)	0.025 µg/mL (≈ 0.0694 µM)	1.56 µg/mL (≈ 4.33 µM)	C[C@@H](O)[C@H]1C(=O)N2C(C(=O)O)=C(SC(=S)N(C)CCO)[C@H](C)[C@H]12 [Example I-72]	Blood urea nitrogen after administration (white rabbits; [1]): 18.1 mg/dL; Creatinine after administration (white rabbits; [1]): 1.4 mg/dL; Blood urea nitrogen before administration (white rabbits; Mean, n=3): 17.4 mg/dL; Creatinine before administration (white rabbits; Mean, n=3): 1.3 mg/dL; Blood urea nitrogen after administration (white rabbits; [2]): 16.8 mg/dL and 16.6 mg/dL and 20.8 mg/dL; Creatinine after administration (white rabbits; [2]): 1.3 mg/dl (2×) and 1.5 mg/dl; Blood urea nitrogen before administration (white rabbits; [3]): 15.8 mg/dL and 16.8 mg/dL and 19.6 mg/dL; Creatinine before administration (white rabbits; [3]): 1.2 mg/dL and 1.3 mg/dL and 1.4 mg/dL; Opinion based on the autopsy (white rabbits; individual rabbit, kidney, about 48 hours after 225 mg/kg intraperitoneally once): no abnormality
0.2 µg/mL	0.1 µg/mL	≤ 0.006 µg/mL	0.39 µg/mL	C[C@@H](O)[C@H]1C(=O)N2C(C(=O)O)=C(SC(=S)N3Cc4ccc(C[N+]56CC[N+](CC(N)=O)(CC5)CC6)cc4C3)[C@H](C)[C@H]12 [Example III-2]	–
0.05 µg/mL (≈ 0.126 µM)	0.1 µg/mL (≈ 0.252 µM)	≤ 0.006 µg/mL	0.39 µg/mL (≈ 0.981 µM)	C[C@@H](O)[C@H]1C(=O)N2C(C(=O)O)=C(SC(=S)N3CC=C(CN)CC3)[C@H](C)[C@H]12 [Example IV-5]	–

SMILES	MIC (P.mirabilis MB4955)	MIC (S.aureus JS1)	MIC (S.aureus MB4970)	MIC (S.aureus BB5939)	other results
C[C@@H](O)[C@H]1C(=O)N2C(C(=O)O)=C(SC(=S)N3CCCC(O)CC3)[C@H](C)[C@H]12 (stereo partly drawn) [Example I-26]	0.05 µg/mL (≈ 0.125 µM)	0.2 µg/mL (≈ 0.499 µM)	0.012 µg/mL (≈ 0.03 µM)	0.78 µg/mL (≈ 1.95 µM)	General symptoms of mobility (ICR male mice; 1000 mg/kg): No abnomality; Surviving number (ICR male mice; 1000 mg/kg): 2/2; General symptoms of mobility (ICR male mice; 1500 mg/kg): No abnomality; Surviving number (ICR male mice; 1500 mg/kg): 2/2; General symptoms of mobility (ICR male mice; 2000 mg/kg): No abnomality; Surviving number (ICR male mice; 2000 mg/kg): 1/1; Case of death (SD rats): 0/5

Reference: EP0781773A1, “NOVEL CARBAPENEM DERIVATIVE” (BANYU PHARMACEUTICAL CO., LTD., priority 1994, dated 1996)
